# Data published in patent US20040131567A1 (priority 2002, published 2004).
# Tests used:
# [1] = system: dry/cracking and scaly elbows; type: in vivo, human; conditions: regimen tried prior to the inventive composition
# [2] = system: psoriasis; conditions: in vivo
# [3] = system: Bacillus anthracis Stearns strain; type: cell-based
# [4] = system: Bacillus anthracis Ames strain; type: cell-based
# [5] = system: Paenibacillus polymyxa, Bacillus licheniformis, Bacillus subtilis, Bacillus sphaericus, Bacillus cereus and a wild Bacillus strain; type: cell-based, Bacillus species; conditions: for average zone of inhibition: 3 replicate assays
# [6] = system: Staphylococcus aureus; type: cell-based; set-up: key: NG = no growth; conditions: S. aureus >10^5 CFU/ml inoculated into 2 ml d-limonene
# [7] = system: Staphylococcus epidermidis; type: cell-based; set-up: key: NG = no growth; conditions: S. epidermidis >10^5 CFU/ml inoculated into 2 ml d-limonene
# [8] = system: Enterococcus faecalis; type: cell-based; set-up: key: NG = no growth; conditions: E. faecalis >10^5 CFU/ml inoculated into 2 ml d-limonene
# [9] = system: Enterococcus faecium; type: cell-based; set-up: key: NG = no growth; conditions: E. faecium >10^5 CFU/ml inoculated into 2 ml d-limonene
# [10] = system: Escherichia coli; type: cell-based; set-up: key: NG = no growth; conditions: E. coli >10^5 CFU/ml inoculated into 2 ml d-limonene
# [11] = system: Enterobacter cloacae; type: cell-based; set-up: key: NG = no growth
# [12] = system: Klebsiella pneumoniae; type: cell-based; set-up: key: NG = no growth; conditions: K. pneumoniae >10^5 CFU/ml inoculated into 2 ml d-limonene
# [13] = system: Serratia marcescens; type: cell-based; set-up: key: NG = no growth
# [14] = system: Pseudomonas aeruginosa; type: cell-based; set-up: key: NG = no growth; conditions: P. aeruginosa >10^5 CFU/ml inoculated into 2 ml d-limonene
# [15] = system: Acinetobacter baummii/haemolyticus; type: cell-based; set-up: key: NG = no growth; conditions: Ac. baum/haemo >10^5 CFU/ml inoculated into 2 ml d-limonene
# [16] = system: Stenotrophomonas maltophila; type: cell-based; set-up: key: NG = no growth
# [17] = system: gram-positive and gram-negative pathogens; type: cell-based
# [18] = system: Staphylococcus aureus, Staphylococcus epidermidis, Streptococcus pyogenes, Streptococcus mutans, other beta hemolytic streptococci, Entercoccus faecalis …; type: cell-based; conditions: in vitro
# [19] = system: Escherichia coli, Enterobactor cloacae, Klebsiella pneumoniae, Serratia marcescens, Pseudomonas aeruginosa, Acinetobacter baummii/haemolyticus, Paenibacillus …; type: cell-based; conditions: in vitro
# [20] = system: Bacillus licheniformis, B. sphaericus, Bacillus cereus, Bacillus subtilus, Bacillus anthracis (Stearns and Ames strains); type: cell-based, Bacillus species
compound,measurement,setting,value
Vitamin E,effect of earlier regimen on the condition,[1],no improvement
same,effect of earlier treatments on the psoriasis,[2],no results
O=C(O)c1cn(C2CC2)c2cc(N3CCNCC3)c(F)cc2c1=O [CIPRO],effect of earlier treatments on the psoriasis,[2],Neither treatment was effective
same,side effects,[2],unpleasant side effects
"OCl [NaOCl, sodium hypochlorite]",susceptibility of the strain to the product,[3],susceptible to all products tested except
same,zone of inhibition,[4],no zones of inhibition
same,average zone size,"[5]; only the inhibited strains P. Polymyxa, B. sphaericus and B. cereus",16 mm
same,inhibition of the Bacillus strains (which strains),[5]; six Bacillus strains,"only inhibited P. Polymyxa, B. sphaericus and B. cereus"
NCc1ccc(S(N)(=O)=O)cc1 [mafenide acetate],susceptibility of the strain to the product,[3],susceptible
same,susceptibility of the strain to the product,[4],susceptible
same,average zone of inhibition,[5]; six Bacillus strains,36 mm
COc1cc(C)c(/C=C/C(C)=C/C=C/C(C)=C/C(=O)O)c(C)c1C [SORIATANE],effect of earlier treatments on the psoriasis,[2],Neither treatment was effective
same,side effects,[2],unpleasant side effects
"O=[N+]([O-])[O-].[Ag+] [AgNO3, silver nitrate]",zone of inhibition (average inhibition zone),[3],18 mm
same,zone of inhibition,[4],16 mm
same,average zone of inhibition,[5]; six Bacillus strains,16 mm
d-limonene,Growth at 24 hr,[6]; 24 hr,NG*
same,Growth at 48 hr,[6]; 48 hr,NG
same,Growth at 72 hr,[6]; 72 hr,NG
same,Growth at 24 hr,[7]; 24 hr,NG
same,Growth at 48 hr,[7]; 48 hr,NG
same,Growth at 72 hr,[7]; 72 hr,NG
same,Growth at 24 hr,[8]; 24 hr,NG
same,Growth at 48 hr,[8]; 48 hr,NG
same,Growth at 72 hr,[8]; 72 hr,NG
same,Growth at 24 hr,[9]; 24 hr,NG
same,Growth at 48 hr,[9]; 48 hr,NG
same,Growth at 72 hr,[9]; 72 hr,NG
same,Growth at 24 hr,[10]; 24 hr,NG
same,Growth at 48 hr,[10]; 48 hr,NG
same,Growth at 72 hr,[10]; 72 hr,NG
same,Growth at 24 hr,[11],NG
same,Growth at 48 hr,[11],NG
same,Growth at 72 hr,[11],NG
same,Growth at 24 hr,[12]; 24 hr,NG
same,Growth at 48 hr,[12]; 48 hr,NG
same,Growth at 72 hr,[12]; 72 hr,NG
same,Growth at 24 hr,[13],NG*
same,Growth at 48 hr,[13],NG
same,Growth at 72 hr,[13],NG
same,Growth at 24 hr,[14]; 24 hr,NG
same,Growth at 48 hr,[14]; 48 hr,NG
same,Growth at 72 hr,[14]; 72 hr,NG
same,Growth at 24 hr,[15]; 24 hr,NG
same,Growth at 48 hr,[15]; 48 hr,NG
same,Growth at 72 hr,[15]; 72 hr,NG
same,Growth at 24 hr,[16],NG
same,Growth at 48 hr,[16],NG
same,Growth at 72 hr,[16],NG
same,effectiveness in killing or inhibiting growth of gram-positive and gram-negative bacteria,[17],effective in killing or inhibiting the growth
same,time within which all pathogens tested were effectively eradicated,[17],≤ 24 h
same,zone of inhibition (average inhibition zone),[3],30 mm
same,zone of inhibition,[4],21 mm
same,average zone of inhibition,[5]; six Bacillus strains,21 mm
same,effectiveness in eradicating gram-positive pathogens,[18],effective in eradicating
same,effectiveness in eradicating gram-negative pathogens,[19],effective in eradicating
same,effectiveness in eradicating Bacillus species,[20],effective in eradicating
"NC(=O)N/N=C/c1ccc([N+](=O)[O-])o1 [Furacin, nitrofurazone]",average zone of inhibition,[5]; six Bacillus strains,35 mm
